Measurements from patent US10344019B2 (priority 2010, dated 2019).

What was measured:
Assay type in all cases: cell-based
[1] = tested on: HCV 2a Rluc cells (NS5A chimeric genotype 2a JFH-1 replicon with genotype 2a J6 strain NS5A gene, M31 present); test: HCV replicon reporter assay, genotype 2a J6 (M31 present); details: Hepatitis C virus, read-out: 2a J6
Description: Evaluation of cell-based anti-HCV activity: Antiviral potency (EC50) was determined using a Renilla luciferase (RLuc)-based HCV replicon reporter assay. To perform the assay for genotype 1 and 2a JFH-1, HCV 1b RLuc cells (harboring a dicistronic genotype 1b Con1 replicon that encodes a RLuc reporter), or HCV 1a RLuc cells (harboring a dicistronic genotype 1a H77 replicon that encodes a RLuc reporter), or HCV 2a JFH-1 Rluc cells (harboring a dicistronic genotype 2a JFH-1 replicon that encodes a RLuc reporter) were dispensed into 384-well plates. To perform the assay for genotype 2a (with M31 present) or 2b, HCV 2a Rluc or 2b Rluc cells (both with M31 present) harboring a dicistronic NS5A chimeric genotype 2a JFH-1 replicon that encodes a RLuc reporter and either genotype 2a J6 strain NS5A gene or genotype 2b MD2b-1 NS5A gene (based on Los Alamos HCV database isolates, both with M31 present) respectively, were dispensed into 384-well plates. To perform the assay for genotype 3 and 4, HCV 3a RLuc or 4a Rluc cells harboring a dicistronic NS5A chimeric genotype 1b Con1 replicon that encodes a RLuc reporter and either a consensus genotype 3a NS5A gene or genotype 4a NS5A gene (based on Los Alamos HCV database isolates) respectively, were dispensed into 384-well plates. Compounds were re-suspended in DMSO at a concentration of 10 mM and serially diluted in DMSO either manually or using an automated pipeting instrument. Serially diluted compounds were mixed with cell culture media and added to the seeded cells. […] 72 hours later, cells were lysed and Renilla luciferase activity quantified as recommended by the manufacturer (Promega-Madison, Wis.). Non-linear regression was performed to calculate EC50 values.

[2] = tested on: HCV 1a RLuc cells (dicistronic genotype 1a H77 replicon, RLuc reporter); test: microbe, parasite or virus in culture; details: Hepatitis C virus, genotype 1a H77 RLuc replicon; read-out: 1a
How it was run: (§1)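 Replicon cells stably carrying the listed RLuc-encoding dicistronic replicons were seeded and treated with DMSO serial dilutions of compound (10 mM stocks) diluted into culture medium. After 72 h, cells were lysed and Renilla luciferase activity measured. EC50 was derived by non-linear regression.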

[3] = tested on: HCV 2b Rluc cells (NS5A chimeric genotype 2a JFH-1 replicon with genotype 2b MD2b-1 NS5A gene, M31 present); test: microbe, parasite or virus in culture; details: Hepatitis C virus, read-out: 2b
How it was run: as §1

[4] = tested on: HCV 1b RLuc cells (dicistronic genotype 1b Con1 replicon, RLuc reporter); test: microbe, parasite or virus in culture; details: Hepatitis C virus, read-out: 1b (nM)
How it was run: as §1

[5] = tested on: HCV 2a JFH-1 Rluc cells (dicistronic genotype 2a JFH-1 replicon, RLuc reporter); test: microbe, parasite or virus in culture; details: Hepatitis C virus, genotype 2a JFH-1 RLuc replicon; read-out: 2a JFH
How it was run: as §1

[6] = tested on: HCV 4a Rluc cells (NS5A chimeric genotype 1b Con1 replicon with genotype 4a NS5A gene); test: microbe, parasite or virus in culture; details: Hepatitis C virus, read-out: 4a
How it was run: as §1

Compound	EC50 [1] [nM]	EC50 [2] [nM]	EC50 [3] [nM]	EC50 [4] [nM]	EC50 [5] [nM]	EC50 [6] [nM]
CC[C@H](C)[C@H](NC(=O)OC)C(=O)N1[C@@H](C)CC[C@H]1c1ncc(-c2ccc3c(c2)COc2cc4c(ccc5nc([C@@H]6C[C@H](COC)CN6C(=O)[C@@H](NC(=O)OC)C(C)C)[nH]c54)cc2-3)[nH]1 [Example 638]	0.001 to 0.999	0.001 to 0.999	0.001 to 0.999	0.009	0.001 to 0.999	
COC[C@H]1C[C@@H](c2nc3ccc4cc(-c5ccc6c(ccc7nc([C@@H]8CCCN8C(=O)[C@@H](NC(=O)OC)C(C)C)[nH]c76)c5)ccc4c3[nH]2)N(C(=O)[C@H](NC(=O)C2CCC2)c2ccccc2)C1 [Example 537]	0.001 to 0.999	0.001 to 0.999	0.001 to 0.999	0.014	0.001 to 0.999	0.001 to 0.99
CC[C@H](C)[C@H](NC(=O)OC)C(=O)N1[C@@H]2C[C@@H]2C[C@H]1c1nc2ccc3cc(-c4ccc5c(ccc6nc([C@@H]7C[C@H](COC)CN7C(=O)[C@H](NC(=O)C7CC7)c7ccccc7)[nH]c65)c4)ccc3c2[nH]1 [Example 531]	0.001 to 0.999	0.001 to 0.999	0.001 to 0.999	0.018	0.001 to 0.999	0.001 to 0.99
COC[C@H]1C[C@@H](c2nc3ccc4cc5c(cc4c3[nH]2)OCc2cc(-c3ccc4nc([C@@H]6CCCN6C(=O)[C@@H](NC(=O)OC)C(C)C)[nH]c4c3)ccc2-5)N(C(=O)[C@H](NC(=O)OC)c2ccccc2)C1 [Example 556]	> 44	0.001 to 0.999	> 44		0.001 to 0.999	0.001 to 0.99
COC[C@H]1C[C@@H](c2nc3ccc4cc5c(cc4c3[nH]2)OCc2cc(-c3ccc4nc([C@@H]6CCCN6C(=O)[C@@H](NC(=O)OC)C(C)C)[nH]c4c3)ccc2-5)N(C(=O)[C@@H](NC(=O)OC)C(C)C)C1 [Example 563]	> 44	0.001 to 0.999	> 44	0.007	0.001 to 0.999	0.001 to 0.99
COC[C@H]1C[C@@H](c2nc3ccc4cc(-c5ccc6c(ccc7nc([C@@H]8C[C@H]9C[C@H]9N8C(=O)[C@@H](NC(=O)OC)C(C)(C)C)[nH]c76)c5)ccc4c3[nH]2)N(C(=O)[C@H](NC(=O)OC)c2ccccc2)C1 [Example 530]	0.001 to 0.999	0.001 to 0.999	0.001 to 0.999	0.011	0.001 to 0.999	0.001 to 0.99
COC(=O)N[C@H](C(=O)N1C[C@@H](COC(F)F)C[C@H]1c1ncc(-c2ccc3c(c2)COc2cc4c(ccc5nc([C@@H]6CC[C@H](C)N6C(=O)[C@@H](NC(=O)OC)C(C)C)[nH]c54)cc2-3)[nH]1)C(C)C [Example 632]	0.001 to 0.999	0.001 to 0.999	0.001 to 0.999	0.008	0.001 to 0.999	
CCC(C)[C@H](NC(=O)OC)C(=O)N1C[C@@H](COC)C[C@H]1c1nc2ccc3cc4c(cc3c2[nH]1)OCc1cc(-c2cnc([C@@H]3C[C@H](C)CN3C(=O)[C@@H](NC(=O)OC)[C@@H](C)CC)[nH]2)ccc1-4 (stereo partly drawn) [Example 640]	0.001 to 0.999	0.001 to 0.999	0.001 to 0.999	0.015	0.001 to 0.999	
CC[C@H](C)[C@H](NC(=O)OC)C(=O)N1C[C@@H](C)C[C@H]1c1ncc(-c2ccc3c(c2)COc2cc4c(ccc5nc([C@@H]6C[C@H](COC)CN6C(=O)[C@@H](NC(=O)OC)[C@@H](C)OC)[nH]c54)cc2-3)[nH]1 [Example 641]	0.001 to 0.999	0.001 to 0.999	0.001 to 0.999	0.03	0.001 to 0.999	
COC(=O)N[C@H](C(=O)N1[C@@H](C)CC[C@H]1c1ncc(-c2ccc3c(c2)COc2cc4c(ccc5nc([C@@H]6CCCN6C(=O)[C@H](N)c6ccccc6)[nH]c54)cc2-3)[nH]1)C(C)C [Example 604]	0.001 to 0.999	0.001 to 0.999	0.001 to 0.999	0.02	0.001 to 0.999	
